Assay results taken from patent US20240041042A1, “1-(PYRIDYL)-5-AZINYLPYRAZOLE DERIVATIVES, AND THEIR USE FOR CONTROL OF UNDESIRED PLANT GROWTH” (Bayer Aktiengesellschaft, priority 2020, published 2024).

Key:
Assay type in all cases: in vivo
Setaria viridis (SETVI) [1] = assay: Post-emergence herbicidal action against SETVI; conditions: dosage 80 g/ha
Procedure, shortened: (§1)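 Post-emergence greenhouse spray, one-leaf stage, 600 l/ha water plus 0.5% additive; WP or EC formulations; application rates 320 g/ha or lower. Visual % damage vs untreated controls at ~3 weeks.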

[2] = test system: Echinochloa crus-galli (ECHCG); assay: Post-emergence herbicidal action against ECHCG; conditions: dosage 80 g/ha
Procedure, shortened: as §1

[3] = test system: Echinochloa crus-galli (ECHCG); assay: Pre-emergence herbicidal action against ECHCG; conditions: dosage 320 g/ha
Procedure, shortened: (§2)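 Pre-emergence soil-surface spray of compound, formulated as wettable powder or emulsion concentrate, in aqueous suspension or emulsion with 0.5% additive (600 l/ha; rate 320 g/ha or less). Activity rated visually after roughly 3 weeks in the greenhouse as a percentage of untreated controls, 0% meaning no difference.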

[4] = test system: Verconica persica (VERPE); assay: Post-emergence herbicidal action against VERPE; conditions: dosage 80 g/ha
Procedure, shortened: as §1

[5] = test system: Matricaria inodora (MATIN); assay: Pre-emergence herbicidal action against MATIN; conditions: dosage 320 g/ha
Procedure, shortened: as §2

[6] = test system: Amaranthus retroflexus (AMARE); assay: Pre-emergence herbicidal action against AMARE; conditions: visual scoring after about 3 weeks vs untreated controls
Procedure, shortened: as §2

Viola tricolor (VIOTR) [7] = assay: Post-emergence herbicidal action against VIOTR; conditions: 80 g/ha
Procedure, shortened: as §1

[8] = test system: Polygonum convolvulus (POLCO); assay: Post-emergence herbicidal action against POLCO; conditions: dosage 80 g/ha
Procedure, shortened: as §1

[9] = test system: Polygonum convolvulus (POLCO); assay: Pre-emergence herbicidal action against POLCO; conditions: dosage 320 g/ha
Procedure, shortened: as §2

[10] = test system: Verconica persica (VERPE); assay: Pre-emergence herbicidal action against VERPE; conditions: dosage 320 g/ha
Procedure, shortened: as §2

[11] = test system: Abutilon theophrasti (ABUTH); assay: Pre-emergence herbicidal action against ABUTH; conditions: Dosage column 320 g/ha (title prints 3200 g/ha); scored visually after about 3 weeks; 100% = plants have died
Procedure, shortened: as §2

[12] = test system: Digitaria sanguinalis (DIGSA); assay: Post-emergence herbicidal action against DIGSA; conditions: 80 g/ha, visual rating about 3 weeks after treatment
Procedure, shortened: as §1

[13] = test system: Alopecurus myosuroides (ALOMY); assay: Post-emergence herbicidal action against ALOMY; conditions: 80 g/ha, visual rating about 3 weeks after treatment vs untreated controls (100% = plants have died, 0% = like control plants)
Procedure, shortened: as §1

[14] = test system: Digitaria sanguinalis (DIGSA); assay: Pre-emergence herbicidal action against DIGSA
Procedure, shortened: as §2

Setaria viridis (SETVI) [15] = assay: Pre-emergence herbicidal action against SETVI
Procedure, shortened: as §2

Avena fatua (AVEFA) = assay: Pre-emergence herbicidal action against AVEFA; conditions: 320 g/ha, visual scoring after about 3 weeks vs untreated controls
Procedure, shortened: as §2

Oryza sativa (ORYSA) = conditions: crop plant compatibility, 20 g/ha, effect vs untreated controls
Procedure, shortened: (§3)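 Percent effect on the crop was judged by eye against untreated controls, where 0% means like control and 100% means dead plants. Plants had been sprayed post-emergence at the one-leaf stage and then kept under optimum greenhouse conditions for about 3 weeks.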

Zea mays (ZEAMX) = conditions: 20 g/ha, ZEAMX, effect in comparison to untreated controls
Procedure, shortened: as §3

[16] = test system: Abutilon theophrasti (ABUTH); assay: Post-emergence herbicidal action against ABUTH; conditions: 80 g/ha, visual rating about 3 weeks after treatment vs untreated controls (100% = plants have died, 0% = like control plants)
Procedure, shortened: as §1

[17] = test system: Pharbitis purpurea (PHBPU); assay: Post-emergence herbicidal action against PHBPU; conditions: dosage 80 g/ha
Procedure, shortened: as §1

[18] = test system: Alopecurus myosuroides (ALOMY); assay: Pre-emergence herbicidal action against ALOMY; conditions: scored visually after about 3 weeks, 100% = plants have died
Procedure, shortened: as §2

Lolium rigidum (LOLRI) = assay: Pre-emergence herbicidal action against LOLRI; conditions: dosage 320 g/ha
Procedure, shortened: as §2

Viola tricolor (VIOTR) [19] = assay: Pre-emergence herbicidal action against VIOTR
Procedure, shortened: as §2

CCOC(=O)COc1nn(-c2ncccc2F)c(-c2ccc(F)nc2)c1Br [Example I-39]
90%: Post-emergence action against POLCO in % [8] | Pre-emergence action against POLCO in % [9] | Pre-emergence action against ABUTH [11] | Post-emergence action against DIGSA in % [12] | Pre-emergence action against AVEFA in % (Avena fatua (AVEFA)) | Post-emergence action against ABUTH in % [16]
80%: Post-emergence action against SETVI in % (Setaria viridis (SETVI) [1]) | Post-emergence action against ECHCG in % [2] | Post-emergence action against VERPE in % [4] | Post-emergence action against VIOTR in % (Viola tricolor (VIOTR) [7]) | Post-emergence action against PHBPU in % [17]
0%: Post-emergence action against ORYSA in % (Oryza sativa (ORYSA)) | Post-emergence action against ZEAMX in % (crop plant compatibility) (Zea mays (ZEAMX))
100%: Pre-emergence action against ECHCG in % [3] | Pre-emergence action against MATIN in % [5] | Pre-emergence action against AMARE in % ([6]; 80 g/ha) | Pre-emergence action against AMARE in % ([6]; 320 g/ha) | Pre-emergence action against VERPE in % [10] | Post-emergence action against ALOMY in % [13] | Pre-emergence action against DIGSA in % ([14]; 80 g/ha, visual scoring after about 3 weeks vs untreated controls) | Pre-emergence action against DIGSA in % ([14]; dosage 320 g/ha) | Pre-emergence action against SETVI in % (Setaria viridis (SETVI) [15]; dosage 80 g/ha) | Pre-emergence action against SETVI in % (Setaria viridis (SETVI) [15]; dosage 320 g/ha) | Pre-emergence action against ALOMY ([18]; 80 g/ha) | Pre-emergence action against ALOMY ([18]; 320 g/ha) | Pre-emergence action against LOLRI in % (Lolium rigidum (LOLRI)) | Pre-emergence action against VIOTR in % (Viola tricolor (VIOTR) [19]; 320 g/ha, Viola tricolor) | Pre-emergence action against VIOTR in % (Viola tricolor (VIOTR) [19]; dosage 80 g/ha)
